# Measurements from patent publication US20200281944A1, “Combinations Of Lanosterol Or 25-Hydroxycholesterol Including Derivatives Thereof Useful In The Treatment Of Lens Disorders” (priority 2017, published 2020).
# Where a name gives a salt, the structure may show the parent alone.
# Columns and labels:
# presbyopia = settings: cited from earlier work
# lens opacification = settings: cell cultures, in the presence of guanidine; cited from earlier work
smiles,measurement,setting,value
CC(C)=CCC[C@@H](C)[C@H]1CC[C@@]2(C)C3=C(CC[C@]12C)[C@@]1(C)CC[C@H](OP(=O)(O)O)C(C)(C)[C@@H]1CC3 (as salt: phosphate),melting point,,204 to 205 °C
"C[N+](C)(C)CCOC(=O)CCCC[C@@H]1CCSS1 [EV06, Lipoic acid choline ester]",binocular near acuity,presbyopia; Lipoic acid choline ester 1.5%,improved
same,distance corrected near vision acuity (DCNVA) efficacy measures,presbyopia; in vivo,improvement in all
"NCCC(=O)N[C@@H](Cc1c[nH]cn1)C(=O)O [L-carnosine, β-alanyl-L-histidine]",prevention of lens opacification,lens opacification,50 to 60%
